According to PMC10708259 (Molecules, 2023):

Columns and labels:
[1] = molecular target: T1, human μ-opioid receptor (OPRM1) (Homo sapiens, UniProt P35372); assay: cell-based; type: cell-based; settings: for EC50: MOR Agonist EC50 ± SEM; for Emax: read-out: MOR Agonist %Emax ± SEM
T1 construct: host or cells: cAMP Hunter CHO-K1

[2] = molecular target: human δ-opioid receptor (OPRD1) (Homo sapiens, UniProt P41143); assay: Forskolin-induced cAMP accumulation assay, DOR agonist mode; settings: for Emax: CHO-K1, read-out: DOR Agonist %Emax ± SEM; for DOR efficacy in words: cAMP assay
[3] = molecular target: human κ-opioid receptor (OPRK1) (Homo sapiens, UniProt P41145); assay: Forskolin-induced cAMP accumulation assay, KOR agonist mode; settings: for Emax: CHO-K1, read-out: KOR Agonist %Emax ± SEM
Chain of human κ-opioid receptor (OPRK1) (P41145 whole entry): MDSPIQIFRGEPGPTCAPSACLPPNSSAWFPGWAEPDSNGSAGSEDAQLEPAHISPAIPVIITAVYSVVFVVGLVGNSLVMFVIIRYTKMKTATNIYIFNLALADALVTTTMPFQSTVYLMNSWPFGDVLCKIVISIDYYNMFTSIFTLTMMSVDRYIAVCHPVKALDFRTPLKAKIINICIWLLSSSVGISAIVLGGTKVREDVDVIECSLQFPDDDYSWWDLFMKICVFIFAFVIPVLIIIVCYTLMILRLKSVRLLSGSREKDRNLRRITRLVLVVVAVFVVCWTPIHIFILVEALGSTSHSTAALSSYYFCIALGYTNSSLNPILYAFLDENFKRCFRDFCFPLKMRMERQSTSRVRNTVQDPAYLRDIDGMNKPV

Chain of human δ-opioid receptor (OPRD1) (P41143 whole entry): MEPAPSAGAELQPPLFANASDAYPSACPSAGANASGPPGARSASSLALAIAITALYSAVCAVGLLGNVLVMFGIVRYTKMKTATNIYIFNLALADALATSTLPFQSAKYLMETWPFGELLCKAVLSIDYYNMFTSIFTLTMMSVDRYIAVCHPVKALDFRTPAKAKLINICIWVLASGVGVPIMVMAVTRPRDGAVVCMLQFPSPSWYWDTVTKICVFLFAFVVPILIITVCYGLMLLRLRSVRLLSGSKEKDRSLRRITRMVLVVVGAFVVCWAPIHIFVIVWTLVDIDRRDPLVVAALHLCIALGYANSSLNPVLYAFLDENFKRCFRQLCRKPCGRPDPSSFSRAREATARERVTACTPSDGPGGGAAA
T1 sequence (P35372 whole entry): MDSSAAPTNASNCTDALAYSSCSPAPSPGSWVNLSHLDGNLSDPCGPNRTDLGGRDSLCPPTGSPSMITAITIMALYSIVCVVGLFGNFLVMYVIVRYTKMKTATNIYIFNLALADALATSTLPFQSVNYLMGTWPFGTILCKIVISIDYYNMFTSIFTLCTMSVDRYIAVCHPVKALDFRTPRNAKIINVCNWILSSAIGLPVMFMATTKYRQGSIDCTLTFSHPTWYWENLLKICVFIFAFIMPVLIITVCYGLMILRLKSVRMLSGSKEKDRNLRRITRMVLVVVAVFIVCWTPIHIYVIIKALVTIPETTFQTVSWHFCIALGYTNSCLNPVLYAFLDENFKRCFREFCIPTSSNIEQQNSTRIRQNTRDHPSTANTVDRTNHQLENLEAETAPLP

Structure (SMILES)	EC50 [1]	Emax [1]	EC50 [2]	Emax [2]	DOR efficacy in words [2]	EC50 [3]	Emax [3]	MOR potency relative to morphine (times more potent than morphine) [1]	MOR agonist potency / efficacy in words [1]
CC1C2Cc3ccc(O)cc3C1(C)CCN2CCc1ccc(Br)cc1 [Compound 12, (1R,5R,9R)-6,11-Dimethyl-3-(4-bromophenethyl)-1,2,3,4,5,6-hexahydro-2,6-methanobenzo[d]azocin-8-ol]	0.7 nM	102%	1.1 ± 0.3 nM	89%	partial DOR agonists	5 ± 2 nM	100%		
COc1ccc(CCN2CCC3(C)c4cc(O)ccc4CC2C3C)cc1 [Compound 18, (1R,5R,9R)-6,11-Dimethyl-3-(4-methoxyphenethyl)-1,2,3,4,5,6-hexahydro-2,6-methanobenzo[d]azocin-8-ol]	1.2 nM	103%	4 ± 1 nM	87%		9 ± 2 nM	89%		
CC1C2Cc3ccc(O)cc3C1(C)CCN2CCc1cccc([N+](=O)[O-])c1 [Compound 4, (1R,5R,9R)-6,11-Dimethyl-3-(3-nitrophenethyl)-1,2,3,4,5,6-hexahydro-2,6-methanobenzo[d]azocin-8-ol]	26 nM	71%							
CC1C2Cc3ccc(O)cc3C1(C)CCN2CCc1ccc(O)cc1 [Compound 20, (1R,5R,9R)-6,11-Dimethyl-3-(4-hydroxyphenethyl)-1,2,3,4,5,6-hexahydro-2,6-methanobenzo[d]azocin-8-ol]	0.13 nM	102%	5 ± 1 nM	84%		8 ± 3 nM	97%	~40 times	
CC1C2Cc3ccc(O)cc3C1(C)CCN2CCc1cccc(C(F)(F)F)c1 [Compound 10, (1R,5R,9R)-6,11-Dimethyl-3-(3-trifluoromethylphenethyl)-1,2,3,4,5,6-hexahydro-2,6-methanobenzo[d]azocin-8-ol]	167 nM	63%							
CC1C2Cc3ccc(O)cc3C1(C)CCN2CC=Cc1ccccc1 [Compound 25, (1R,5R,9R)-6,11-Dimethyl-3-(cinnamyl)-1,2,3,4,5,6-hexahydro-2,6-methanobenzo[d]azocin-8-ol]	244 nM	101%							little or no potency
CC1C2Cc3ccc(O)cc3C1(C)CCN2CCc1ccccc1C(F)(F)F [Compound 11, (1R,5R,9R)-6,11-Dimethyl-3-(2-trifluoromethylphenethyl)-1,2,3,4,5,6-hexahydro-2,6-methanobenzo[d]azocin-8-ol]	6 nM	102%	24 ± 5 nM	77%		36 ± 3 nM	72%		
C[C@@H]1[C@@H]2C(O)c3ccc(O)cc3[C@@]1(C)CCN2CCc1ccccc1 (single isomer, unassigned; (+)) [(+)-36]	25.2 nM	103%	1910 ± 232 nM	97%		> 10000 nM			
CC1C2Cc3ccc(O)cc3C1(C)CCN2CCc1ccc(Cl)cc1 [Compound 15, (1R,5R,9R)-6,11-Dimethyl-3-(4-chlorophenethyl)-1,2,3,4,5,6-hexahydro-2,6-methanobenzo[d]azocin-8-ol]	1.3 nM	103%	1.2 ± 0.5 nM	89%	partial DOR agonists	5 ± 1 nM	97%		
CC1C2Cc3ccc(O)cc3C1(C)CCN2CCc1ccccc1F [Compound 8, (1R,5R,9R)-6,11-Dimethyl-3-(2-fluorophenethyl)-1,2,3,4,5,6-hexahydro-2,6-methanobenzo[d]azocin-8-ol]	0.2 nM	101%	6 ± 2 nM	87%		6 ± 1 nM	45%	about 30 times	
CC1C2Cc3ccc(O)cc3C1(C)CCN2CCc1ccc(Cl)cc1Cl [Compound 21, (1R,5R,9R)-6,11-Dimethyl-3-(2,4-dichlorophenethyl)-1,2,3,4,5,6-hexahydro-2,6-methanobenzo[d]azocin-8-ol]	5 nM	103%	37 ± 9 nM	86%		42 ± 10 nM	93%		
C[C@H]1[C@H]2Cc3ccc(O)cc3[C@]1(C)CCN2CCCc1ccccc1 [Compound 24, (1R,5R,9R)-6,11-Dimethyl-3-(phenylpropyl)-1,2,3,4,5,6-hexahydro-2,6-methanobenzo[d]azocin-8-ol]	69 nM	101%							little or no potency
CC1C2Cc3ccc(O)cc3C1(C)CCN2CCc1ccc(C(F)(F)F)cc1 [Compound 9, (1R,5R,9R)-6,11-Dimethyl-3-(4-trifluoromethylphenethyl)-1,2,3,4,5,6-hexahydro-2,6-methanobenzo[d]azocin-8-ol]	2 nM	102%	3 ± 1 nM	72%	partial DOR agonists	23 ± 5 nM	100%		
C=C1c2ccc(O)cc2[C@]2(C)CCN(CCc3ccccc3)[C@H]1[C@@H]2C [(−)-38, (2S,6R,11R)-6,11-Dimethyl-1-methylene-3-phenethyl-1,2,3,4,5,6-hexahydro-2,6-methanobenzo[d]azocin-8-ol]	0.23 nM	101%	4.9 ± 3 nM	89%		9.5 ± 2 nM	57 ± 45.6%	about 25 times	
C[C@H]1[C@H]2Cc3ccc(O)cc3[C@]1(C)CCN2CCCc1ccc([N+](=O)[O-])cc1 [Compound 31, (1R,5R,9R)-6,11-Dimethyl-3-(3-(4-nitrophenyl)propyl)-1,2,3,4,5,6-hexahydro-2,6-methanobenzo[d]azocin-8-ol]	≥ 10000 nM								little or no potency
Cc1ccc(CCN2CCC3(C)c4cc(O)ccc4CC2C3C)cc1 [Compound 19, (1R,5R,9R)-6,11-Dimethyl-3-(4-methylphenethyl)-1,2,3,4,5,6-hexahydro-2,6-methanobenzo[d]azocin-8-ol]	1.4 nM	103%	5 ± 2 nM	87%		13 ± 3 nM	93%		
CC1C2Cc3ccc(O)cc3C1(C)CCN2CCc1ccc([N+](=O)[O-])cc1 [Compound 3, (1R,5R,9R)-6,11-Dimethyl-3-(4-nitrophenethyl)-1,2,3,4,5,6-hexahydro-2,6-methanobenzo[d]azocin-8-ol]	0.3 nM	101%	2.7 ± 1 nM	88%	partial DOR agonists	13 ± 0.5 nM	46%		
C=C1c2ccc(O)cc2[C@@]2(C)CCN(CCc3ccccc3)[C@@H]1[C@H]2C [(+)-38, (2R,6S,11S)-6,11-Dimethyl-1-methylene-3-phenethyl-1,2,3,4,5,6-hexahydro-2,6-methanobenzo[d]azocin-8-ol]	70 nM	102%	978 ± 374 nM	92%		1180 ± 46 nM	53%		
CC1C2Cc3ccc(O)cc3C1(C)CCN2CCc1ccccc1Br [Compound 14, (1R,5R,9R)-6,11-Dimethyl-3-(2-bromophenethyl)-1,2,3,4,5,6-hexahydro-2,6-methanobenzo[d]azocin-8-ol]	2 nM	101%	13 ± 2 nM	89%		16 ± 2 nM	80%		
